Data taken from US9499811B2, “Ligation enhancement” (New England Biolabs, Inc., priority 2011, dated 2016).
“Also recorded” adds a separate entry of the source.

Legend:
Assay type in all cases: biochemical
Design in all cases: purchased NEB (New England Biolabs), Ipswich, Mass. #M0202
T4 DNA ligase [1] = molecular target: T1, T4 DNA ligase (Enterobacteria phage T4, UniProt P00970); conditions: enhancer at 12%; no addition = 1-fold; single-base overhangs
T1 sequence (P00970 1-487): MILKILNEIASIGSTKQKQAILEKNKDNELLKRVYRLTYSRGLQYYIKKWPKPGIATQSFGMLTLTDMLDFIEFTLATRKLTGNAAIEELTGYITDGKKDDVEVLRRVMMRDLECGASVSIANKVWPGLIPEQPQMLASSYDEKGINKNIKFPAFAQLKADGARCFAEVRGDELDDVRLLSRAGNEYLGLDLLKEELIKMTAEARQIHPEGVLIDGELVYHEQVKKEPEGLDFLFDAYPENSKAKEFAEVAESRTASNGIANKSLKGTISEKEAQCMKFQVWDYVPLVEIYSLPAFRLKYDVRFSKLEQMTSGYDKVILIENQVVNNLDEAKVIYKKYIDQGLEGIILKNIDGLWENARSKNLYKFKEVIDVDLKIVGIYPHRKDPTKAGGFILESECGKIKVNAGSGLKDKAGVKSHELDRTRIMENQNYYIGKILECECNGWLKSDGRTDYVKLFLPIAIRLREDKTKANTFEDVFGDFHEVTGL
Protocol: (§1) All were tested side-by-side using two ligation test systems which were: (a) cloning of a 500 bp amplicon made by Taq DNA polymerase into a T-tailed vector; and (b) recircularization of an AhdI-linearized plasmid. Both ligation test systems used DNA with single-base overhangs.
(§2) The reaction mixtures contained DNA at 50-100 ng and 1,2-PrD at different concentrations. 1 μl of regular concentration (NEB, Ipswich, Mass., #M0202; 400 units) or 1 μl of high concentration T4 DNA ligase (NEB, Ipswich, Mass., #M0202; 2000 units) was then added to a final volume of 21 μl in 1×T4 DNA Ligase Buffer (NEB, Ipwich, Mass., #B0202) or 1× Quick Ligase™ Buffer (NEB, Ipswich, Mass., #B2200).
(§3) A standard assay uses 100 ng DNA, 1 μl of T4 DNA ligase, 21 μl 1×T4 DNA ligase buffer and varying amounts of enhancer.
(§4) Ligation reactions were incubated for 10 min at room temperature (25° C.) unless otherwise stated, then placed on ice for 2 min. In some experiments the ligase was heat-killed by incubation at 65° C. for 20 min. The ligation reactions were analyzed by 1% agarose gel electrophoresis to identify DNA species and determine the efficiency of […].
(§5) A volume of 2 μl from each ligation reaction was incubated with 50 μl of chemically competent (NEB, Ipswich, Mass., #C2987I) or electrocompetent (NEB, Ipswich, Mass., #C2989K) DH5 alpha E. coli cells.
(§6) For chemically competent cell transformations, the cell-DNA mixture was incubated on ice for 30 min, heat-shocked at 42° C. for 30 sec, then returned to ice for 5 min. A volume of 950 μl SOC medium (2% vegetable peptone or Tryptone, 0.5% yeast extract, 10 mM NaCl, 2.5 mM KCl, 10 mM MgCl2, 10 mM MgSO4 and 20 mM glucose) was added to the cell-DNA mixture, followed by a one hr 37° C. outgrowth period with agitation. A volume of 25-50 μl of appropriately diluted cells in SOC was spread onto Rich Agar plates (composition per liter: 10 g soy peptone, 5 g yeast extract, 10 g NaCl, 1 g MgCl2-6H2O, 1 g dextrose, 15 grams agar) supplemented with 100 μg/ml ampicillin. Plates were inverted and incubated for 16 hrs at 37° C., followed by quantification of total colony numbers.

T4 DNA ligase [2] = molecular target: T1, T4 DNA ligase; assay: Recircularization of AhdI-linearized pUC19 and transformation of NEB Turbo cells (FIGS. 1A-C); conditions: 0, 4%, 6% 1,2-PrD, 400 U T4 DNA ligase, 20 min 16 C
Description: FIGS. 1A-C show the results of recircularization through ligation of double-stranded linearized plasmid DNA in the presence of increasing amounts of 1,2-PrD. The ligated DNA is subsequently transformed into competent E. coli cells, followed by plating on agar ampicillin selection plates. The extent of successful transformation is illustrated by the numbers of colonies on the plate.
Linearization of the pUC19 plasmid was achieved using AhdI to generate single-base overhangs as described in FIG. 3A. Ligation of the cleaved DNA was performed in a 20 μl ligation reaction containing 100 ng of DNA in the presence and absence of 1,2-PrD and 400 U of T4 DNA ligase was incubated for 20 min at 16° C., then heated to 65° C. for 45 min to inactivate the ligase. Transformation of cells with the ligated DNA was performed using chemically competent NEB Turbo™ cells (NEB, Ipswich, Mass., #C2984H) as described in Example 1 using 2 μl of the ligation mix (containing 10 ng DNA) with an outgrowth period of 20 min.

T4 DNA ligase [3] = molecular target: T1, T4 DNA ligase; assay: Transformants after ligation of AhdI-linearized pUC19 in T4 DNA ligase buffer vs Quick Ligase buffer containing PEG 6000; conditions: 1,2-PrD in regular ligase buffer, chemically competent cells
Protocol: The Y-axis is transformants per 10 pg DNA (transformations w/chemically competent cells.) The X-axis is regular ligase buffer (RLB) with the percentage of added 1,2-PrD given in parentheses. The quick ligase buffer (QLB) has PEG in it to enhance ligation.
as §2
For chemically competent cell transformations, the cell-DNA mixture was incubated on ice for 30 min, heat-shocked at 42° C. for 30 sec, then returned to ice for 5 min. […] Plates were inverted and incubated for 16 hrs at 37° C., followed by quantification of total colony numbers.
Ligations were performed in both buffers using 50 ng of AhdI-linearized pUC19 double-stranded DNA (containing single-base overhangs) following the conditions described in Example 1. A total of 10 pg DNA (40 μl of a 1:20 dilution of the SOC outgrowth) was used per plate and transformants were counted after 16 hrs at 37° C.

T4 DNA ligase [4] = molecular target: T1, T4 DNA ligase; assay: Cloning of a 500 bp amplicon made by Taq DNA polymerase into a T-tailed vector (ligation test system a); conditions: enhancer at 12%; no addition = 1-fold; single-base overhangs
Protocol: as §1, §2, §3, §4, §5, §6

T4 DNA ligase [5] = molecular target: T1, T4 DNA ligase; assay: Ligation efficiency assay (standard assay, various ligases and buffers); conditions: 1%-12% 1,2-PrD; various concentrations and types of DNA ligase, regular and Quick Ligase buffers
Protocol: as §2, §3, §4

CC(O)CO (centres unmarked) [1,2-PrD, 1,2-propanediol]
Recircularization Enhancement (T4 DNA ligase [1]): 11-fold
Transformation levels (number of colonies) (T4 DNA ligase [2]): the greater the number of transformants; also recorded: increased transformation levels
Transformants per 10 pg DNA compared with PEG-containing Quick Ligase buffer (T4 DNA ligase [3]): enhanced DNA ligation at least as much as PEG containing Quick Ligase; also recorded: achieved the level of transformation expected or greater than in PEG-containing (quick ligase) buffers
Cloning Enhancement (T4 DNA ligase [4]): 14-fold
Enhancement of ligation (T4 DNA ligase [5]): consistent enhancement of ligation
